{"source": "PubChem BioAssay (NCI)", "assay_in_all_cases": "NCI tumour cell line growth inhibition, 48 h", "key": {"[1]": {"tested_on": "SNB-19 CNS"}, "[2]": {"tested_on": "SF-539 CNS"}, "[3]": {"tested_on": "SK-MEL-5 melanoma"}, "[4]": {"tested_on": "HS 578T breast"}, "[5]": {"tested_on": "HCC-2998 colon"}, "[6]": {"tested_on": "OVCAR-8 ovarian"}, "[7]": {"tested_on": "M14 melanoma"}, "[8]": {"tested_on": "DU-145 prostate"}, "[9]": {"tested_on": "NCI-H23 lung"}, "[10]": {"tested_on": "SK-MEL-28 melanoma"}, "[11]": {"tested_on": "MCF7 breast"}, "[12]": {"tested_on": "SK-MEL-2 melanoma"}, "[13]": {"tested_on": "U251 CNS"}, "[14]": {"tested_on": "UACC-62 melanoma"}, "[15]": {"tested_on": "OVCAR-3 ovarian"}, "[16]": {"tested_on": "NCI-H226 lung"}, "[17]": {"tested_on": "SK-OV-3 ovarian"}, "[18]": {"tested_on": "HOP-62 NSCLC"}, "[19]": {"tested_on": "CCRF-CEM leukemia"}, "[20]": {"tested_on": "NCI-H522 lung"}, "[21]": {"tested_on": "ACHN renal"}, "[22]": {"tested_on": "K-562 leukemia"}, "[23]": {"tested_on": "MDA-MB-435"}, "[24]": {"tested_on": "OVCAR-5 ovarian"}, "[25]": {"tested_on": "SW-620 colon"}, "[26]": {"tested_on": "HL-60(TB) leukemia"}, "[27]": {"tested_on": "EKVX NSCLC"}, "[28]": {"tested_on": "CAKI-1 renal"}, "[29]": {"tested_on": "HCT-15 colon"}, "[30]": {"tested_on": "TK-10 renal"}, "[31]": {"tested_on": "UO-31 renal"}, "[32]": {"tested_on": "BT-549 breast"}, "[33]": {"tested_on": "KM12 colon"}, "[34]": {"tested_on": "MALME-3M melanoma"}, "[35]": {"tested_on": "UACC-257 melanoma"}, "[36]": {"tested_on": "786-0 renal"}, "[37]": {"tested_on": "SNB-75 CNS"}, "[38]": {"tested_on": "NCI-H460 lung"}, "[39]": {"tested_on": "MDA-MB-231 breast"}, "[40]": {"tested_on": "RXF 393 renal"}, "[41]": {"tested_on": "A549 NSCLC"}, "[42]": {"tested_on": "SF-268 CNS"}, "[43]": {"tested_on": "SF-295 CNS"}, "[44]": {"tested_on": "IGROV1 ovarian"}, "[45]": {"tested_on": "A498 renal"}, "[46]": {"tested_on": "HT29 colon"}, "[47]": {"tested_on": "SN12C renal"}, "[48]": {"tested_on": "HCT-116 colon"}, "[49]": {"tested_on": "PC-3 prostate"}, "[50]": {"tested_on": "HOP-92 NSCLC"}}, "note": "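1) Cells in 96-well plates. 2) Compound, 48 h, 5 concentrations. 3) Linear interpolation between surrounding doses. 4) Unreached endpoint = highest concentration. Abbreviation: GI50, concentration required for 50% inhibition of growth. TGI: total growth inhibition.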"}
{"compound": "COc1cccc(Nc2ncnc3cc(NC(=O)CCl)ccc23)c1", "values": [{"measurement": "GI50", "setting": "[1]", "result": 1.5, "unit": "µM"}, {"measurement": "TGI", "setting": "[1]", "result": 3.22, "unit": "µM"}, {"measurement": "GI50", "setting": "[2]", "result": 1.52, "unit": "µM"}, {"measurement": "TGI", "setting": "[2]", "result": 2.92, "unit": "µM"}, {"measurement": "GI50", "setting": "[3]", "result": 1.25, "unit": "µM"}, {"measurement": "TGI", "setting": "[3]", "result": 2.55, "unit": "µM"}, {"measurement": "GI50", "setting": "[4]", "result": 1.84, "unit": "µM"}, {"measurement": "TGI", "setting": "[4]", "result": 8.15, "unit": "µM"}, {"measurement": "GI50", "setting": "[5]", "result": 1.81, "unit": "µM"}, {"measurement": "TGI", "setting": "[5]", "result": 3.7, "unit": "µM"}, {"measurement": "GI50", "setting": "[6]", "result": 1.88, "unit": "µM"}, {"measurement": "TGI", "setting": "[6]", "result": 5.16, "unit": "µM"}, {"measurement": "GI50", "setting": "[7]", "result": 1.39, "unit": "µM"}, {"measurement": "TGI", "setting": "[7]", "result": 3, "unit": "µM"}, {"measurement": "GI50", "setting": "[8]", "result": 1.23, "unit": "µM"}, {"measurement": "TGI", "setting": "[8]", "result": 2.6, "unit": "µM"}, {"measurement": "GI50", "setting": "[9]", "result": 1.61, "unit": "µM"}, {"measurement": "TGI", "setting": "[9]", "result": 3.92, "unit": "µM"}, {"measurement": "GI50", "setting": "[10]", "result": 1.65, "unit": "µM"}, {"measurement": "TGI", "setting": "[10]", "result": 3.24, "unit": "µM"}, {"measurement": "GI50", "setting": "[11]", "result": 0.789, "unit": "µM"}, {"measurement": "TGI", "setting": "[11]", "result": 3.19, "unit": "µM"}, {"measurement": "GI50", "setting": "[12]", "result": 1.69, "unit": "µM"}, {"measurement": "TGI", "setting": "[12]", "result": 3.48, "unit": "µM"}, {"measurement": "GI50", "setting": "[13]", "result": 0.33, "unit": "µM"}, {"measurement": "TGI", "setting": "[13]", "result": 1.12, "unit": "µM"}, {"measurement": "GI50", "setting": "[14]", "result": 1.13, "unit": "µM"}, {"measurement": "TGI", "setting": "[14]", "result": 2.48, "unit": "µM"}, {"measurement": "GI50", "setting": "[15]", "result": 0.768, "unit": "µM"}, {"measurement": "TGI", "setting": "[15]", "result": 2.22, "unit": "µM"}, {"measurement": "GI50", "setting": "[16]", "result": 1.91, "unit": "µM"}, {"measurement": "TGI", "setting": "[16]", "result": 4.55, "unit": "µM"}, {"measurement": "GI50", "setting": "[17]", "result": 1.58, "unit": "µM"}, {"measurement": "TGI", "setting": "[17]", "result": 3.15, "unit": "µM"}, {"measurement": "GI50", "setting": "[18]", "result": 1.48, "unit": "µM"}, {"measurement": "TGI", "setting": "[18]", "result": 3.06, "unit": "µM"}, {"measurement": "GI50", "setting": "[19]", "result": 0.392, "unit": "µM"}, {"measurement": "TGI", "setting": "[19]", "result": 2.16, "unit": "µM"}, {"measurement": "GI50", "setting": "[20]", "result": 0.388, "unit": "µM"}, {"measurement": "TGI", "setting": "[20]", "result": 1.63, "unit": "µM"}, {"measurement": "GI50", "setting": "[21]", "result": 1.08, "unit": "µM"}, {"measurement": "TGI", "setting": "[21]", "result": 2.34, "unit": "µM"}, {"measurement": "GI50", "setting": "[22]", "result": 0.343, "unit": "µM"}, {"measurement": "TGI", "setting": "[22]", "result": 2, "unit": "µM"}, {"measurement": "GI50", "setting": "[23]", "result": 0.821, "unit": "µM"}, {"measurement": "TGI", "setting": "[23]", "result": 2.21, "unit": "µM"}, {"measurement": "GI50", "setting": "[24]", "result": 1.61, "unit": "µM"}, {"measurement": "TGI", "setting": "[24]", "result": 3.02, "unit": "µM"}, {"measurement": "GI50", "setting": "[25]", "result": 0.612, "unit": "µM"}, {"measurement": "TGI", "setting": "[25]", "result": 2.1, "unit": "µM"}, {"measurement": "GI50", "setting": "[26]", "result": 1.27, "unit": "µM"}, {"measurement": "TGI", "setting": "[26]", "result": 3.54, "unit": "µM"}, {"measurement": "GI50", "setting": "[27]", "result": 1.56, "unit": "µM"}, {"measurement": "TGI", "setting": "[27]", "result": 4.49, "unit": "µM"}, {"measurement": "GI50", "setting": "[28]", "result": 1.06, "unit": "µM"}, {"measurement": "TGI", "setting": "[28]", "result": 2.31, "unit": "µM"}, {"measurement": "GI50", "setting": "[29]", "result": 0.353, "unit": "µM"}, {"measurement": "TGI", "setting": "[29]", "result": 1.62, "unit": "µM"}, {"measurement": "GI50", "setting": "[30]", "result": 1.2, "unit": "µM"}, {"measurement": "TGI", "setting": "[30]", "result": 2.52, "unit": "µM"}, {"measurement": "GI50", "setting": "[31]", "result": 1.11, "unit": "µM"}, {"measurement": "TGI", "setting": "[31]", "result": 2.43, "unit": "µM"}, {"measurement": "GI50", "setting": "[32]", "result": 1.23, "unit": "µM"}, {"measurement": "TGI", "setting": "[32]", "result": 2.69, "unit": "µM"}, {"measurement": "GI50", "setting": "[33]", "result": 1.36, "unit": "µM"}, {"measurement": "TGI", "setting": "[33]", "result": 2.9, "unit": "µM"}, {"measurement": "GI50", "setting": "[34]", "result": 1.07, "unit": "µM"}, {"measurement": "TGI", "setting": "[34]", "result": 2.51, "unit": "µM"}, {"measurement": "GI50", "setting": "[35]", "result": 1.41, "unit": "µM"}, {"measurement": "TGI", "setting": "[35]", "result": 3.02, "unit": "µM"}, {"measurement": "GI50", "setting": "[36]", "result": 1.55, "unit": "µM"}, {"measurement": "TGI", "setting": "[36]", "result": 3.1, "unit": "µM"}, {"measurement": "GI50", "setting": "[37]", "result": 0.379, "unit": "µM"}, {"measurement": "TGI", "setting": "[37]", "result": 2.28, "unit": "µM"}, {"measurement": "GI50", "setting": "[38]", "result": 1.32, "unit": "µM"}, {"measurement": "TGI", "setting": "[38]", "result": 3.08, "unit": "µM"}, {"measurement": "GI50", "setting": "[39]", "result": 1.27, "unit": "µM"}, {"measurement": "TGI", "setting": "[39]", "result": 2.6, "unit": "µM"}, {"measurement": "GI50", "setting": "[40]", "result": 1.46, "unit": "µM"}, {"measurement": "TGI", "setting": "[40]", "result": 2.94, "unit": "µM"}, {"measurement": "GI50", "setting": "[41]", "result": 1.48, "unit": "µM"}, {"measurement": "TGI", "setting": "[41]", "result": 3.11, "unit": "µM"}, {"measurement": "GI50", "setting": "[42]", "result": 1.42, "unit": "µM"}, {"measurement": "TGI", "setting": "[42]", "result": 3.24, "unit": "µM"}, {"measurement": "GI50", "setting": "[43]", "result": 1.68, "unit": "µM"}, {"measurement": "TGI", "setting": "[43]", "result": 3.19, "unit": "µM"}, {"measurement": "GI50", "setting": "[44]", "result": 0.568, "unit": "µM"}, {"measurement": "TGI", "setting": "[44]", "result": 2.25, "unit": "µM"}, {"measurement": "GI50", "setting": "[45]", "result": 1.72, "unit": "µM"}, {"measurement": "TGI", "setting": "[45]", "result": 3.81, "unit": "µM"}, {"measurement": "GI50", "setting": "[46]", "result": 0.499, "unit": "µM"}, {"measurement": "TGI", "setting": "[46]", "result": 1.85, "unit": "µM"}, {"measurement": "GI50", "setting": "[47]", "result": 1.15, "unit": "µM"}, {"measurement": "TGI", "setting": "[47]", "result": 2.44, "unit": "µM"}, {"measurement": "GI50", "setting": "[48]", "result": 1.02, "unit": "µM"}, {"measurement": "TGI", "setting": "[48]", "result": 2.47, "unit": "µM"}, {"measurement": "GI50", "setting": "[49]", "result": 1.12, "unit": "µM"}, {"measurement": "TGI", "setting": "[49]", "result": 2.46, "unit": "µM"}, {"measurement": "GI50", "setting": "[50]", "result": 1.7, "unit": "µM"}, {"measurement": "TGI", "setting": "[50]", "result": 3.4, "unit": "µM"}]}
